Counter-ions that a name gives are not always drawn.
Target: T1, Protein kinase C zeta type (Homo sapiens, UniProt Q05513)
T1 sequence (Q05513 whole entry): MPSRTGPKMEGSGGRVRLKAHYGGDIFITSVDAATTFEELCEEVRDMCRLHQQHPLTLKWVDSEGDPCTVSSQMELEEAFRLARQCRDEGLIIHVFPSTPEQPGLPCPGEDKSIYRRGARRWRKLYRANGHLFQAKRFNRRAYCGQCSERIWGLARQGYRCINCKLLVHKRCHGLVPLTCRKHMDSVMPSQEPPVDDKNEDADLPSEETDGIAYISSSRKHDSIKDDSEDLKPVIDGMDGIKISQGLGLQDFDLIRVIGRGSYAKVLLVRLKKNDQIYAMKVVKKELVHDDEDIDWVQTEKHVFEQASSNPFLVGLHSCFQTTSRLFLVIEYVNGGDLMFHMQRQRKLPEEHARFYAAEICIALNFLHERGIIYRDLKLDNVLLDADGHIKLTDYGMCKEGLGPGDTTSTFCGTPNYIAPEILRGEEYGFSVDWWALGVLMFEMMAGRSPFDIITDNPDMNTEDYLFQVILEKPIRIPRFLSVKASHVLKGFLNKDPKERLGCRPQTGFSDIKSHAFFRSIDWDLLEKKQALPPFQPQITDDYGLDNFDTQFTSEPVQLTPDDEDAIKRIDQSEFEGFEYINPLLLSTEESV
Experiment: Inhibition of PKCzeta by TR-FRET based LanthaScreen assay

Structure (SMILES)	IC50 [µM]
C=C(C)C(CC)CC[C@@H](C)[C@H]1CC[C@@]2(C)[C@@H]3C[C@H](OS(=O)(=O)O)[C@H]4[C@@H](O)[C@H](OS(=O)(=O)O)[C@@H](OS(=O)(=O)O)C[C@]4(C)C3=CC[C@]12C (some centres undefined) [SPHECIOSTEROL SULFATE A]	1.59
C=C(C)C(C)(C)C(C)CC[C@@H](C)[C@H]1CC[C@@]2(C)[C@@H]3C[C@H](OS(=O)(=O)O)[C@H]4[C@@H](O)[C@H](OS(=O)(=O)O)[C@@H](OS(=O)(=O)O)C[C@]4(C)C3=CC[C@]12C (some centres undefined) [SPHECIOSTEROL SULFATE C]	0.11
CC(C)C1(CC[C@@H](C)[C@H]2CC[C@@]3(C)[C@@H]4C[C@H](OS(=O)(=O)O)[C@H]5[C@@H](O)[C@H](OS(=O)(=O)O)[C@@H](OS(=O)(=O)O)C[C@]5(C)C4=CC[C@]23C)CC1C (some centres undefined) [TOPSENTIASTEROL SULFATE E]	1.21
C=C(C)C(CC[C@@H](C)[C@H]1CC[C@@]2(C)[C@@H]3C[C@H](OS(=O)(=O)O)[C@H]4[C@@H](O)[C@H](OS(=O)(=O)O)[C@@H](OS(=O)(=O)O)C[C@]4(C)C3=CC[C@]12C)C(C)C (some centres undefined) [SPHECIOSTEROL SULFATE B]	0.53

Source: ChEMBL document CHEMBL1155021, “Spheciosterol sulfates, PKCzeta inhibitors from a philippine sponge Spheciospongia sp” (J Nat Prod, 2008)
